Measured values as given in patent publication US20060216775A1, “Compositions and methods for analysis and manipulation of enzymes in biosynthetic proteomes” (priority 2003, published 2006).

Molecular target: T1, VibB (UniProt P0C6D3+P39135)
T1 construct: made in house; host or cells: E. coli BL21 (DE3), crude lysate
Format: biochemical, Vibrio cholera
Conditions: cell lysate of E. coli BL21 producing VibB, recombinant Sfp, SDS-PAGE, UV irradiation
Text: To investigate PPTase transfer of non-thioester CoA derivatives, Sfp was used for post-translational modification of known, heterologously expressed CP domains (FIG. 11). As a first experiment, VibB was used. VibB is a small protein from the Vibrio cholera vibriobactin biosynthetic machinery that consists of a modular NRP synthase system. VibB contains only one carrier protein domain and as such is a perfect model system due to its small size and facile expression in E. coli. Cell lysate was collected from induced E. coli BL21 cells producing VibB from a pET24 expression vector. An aliquot of this lysate was incubated with CoA-BODIPY derivative and recombinant Sfp and analyzed by SDS-PAGE. […] Coomassie staining of the gel confirmed the band to be fluorescently-tagged VibB (32.6 kD) (FIG. 11C). […]
One Liter of E. Coli BL21 (DE3) cells induced to express recombinant VibB, FrenACP, OtcACP, and TcmACP, each in pET22b vectors (Novagen, Madison, Wis.), were pelleted, resuspended, and lysed by sonication in 30 mL 0.1 M Tris-Cl pH 8.0 with 1% glycerol in the presence of 500 μL of a 10 mM protease inhibitor cocktail containing bestatin, pepstatin A, E-64, and phosphoramidon (Sigma-Aldrich) and sonicated by pulsing for 5 minutes on ice. […] Protein concentration was determined using the Bradford method with bovine serum albumin (Sigma-Aldrich) as a standard.

T1 sequence (P39135 whole entry): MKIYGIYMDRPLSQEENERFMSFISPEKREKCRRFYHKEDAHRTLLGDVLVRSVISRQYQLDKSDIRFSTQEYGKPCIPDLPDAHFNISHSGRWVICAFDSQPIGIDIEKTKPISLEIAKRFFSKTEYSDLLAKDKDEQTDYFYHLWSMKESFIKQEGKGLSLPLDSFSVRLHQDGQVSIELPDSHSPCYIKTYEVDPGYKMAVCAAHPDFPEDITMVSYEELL
T1 sequence (P0C6D3 whole entry): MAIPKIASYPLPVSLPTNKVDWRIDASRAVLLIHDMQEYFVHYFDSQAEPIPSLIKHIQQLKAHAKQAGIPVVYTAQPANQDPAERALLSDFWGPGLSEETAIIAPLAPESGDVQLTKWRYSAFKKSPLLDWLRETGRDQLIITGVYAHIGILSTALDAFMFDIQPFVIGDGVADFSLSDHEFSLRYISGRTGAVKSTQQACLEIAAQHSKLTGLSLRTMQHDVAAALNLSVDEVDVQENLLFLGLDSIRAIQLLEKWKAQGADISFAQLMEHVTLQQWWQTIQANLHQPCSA

Structure (SMILES): O=C(O)c1cc(N2C(=O)C=CC2=O)ccc1-c1c2cc(F)c(=O)cc-2oc2cc(O)c(F)cc12 [1b, Oregon Green® 488 maleimide]
- fluorescent labeling of VibB: Comparable labeling
